How the values were obtained:
[1] = [^18F]-PBR111 metabolite analysis in plasma (solid phase extraction); type: in vivo, rat; settings: 50-min post-injection
Description: To establish a standard curve of [^18F]-PBR111 metabolism, blood samples were obtained in four control rats (304 ± 10 g) and six KASE rats (312 ± 8 g, minor to medium SE), which were maintained under anaesthesia to mimic the conditions of the PET scan (Table 1). Animals were anaesthetised with 5% isoflurane for induction and 1% to 3% for maintenance, administered in medical oxygen. An incision was made in the inner thigh of the hind leg, and the femoral artery was exposed and loosely tied off after blunt dissection of the surrounding tissue. A polyethylene cannula filled with heparinised saline (20 IU/ml) was placed into the femoral artery and threaded 3 cm proximally.
Animals were injected intravenously with [^18F]-PBR111 (injected dose (ID) = 14.1 to 38.7 MBq). […] The line was flushed with saline, and the remaining radioactivity was measured in the line and syringe. […] Plasma samples (0.1 ml) were weighed and the radioactivity was measured in a Wallac γ-counter. […]
SPE analysis was performed on Oasis cartridges (Waters Oasis® HLB, 30 μm, 60 mg) that were preconditioned with 1 ml ethanol followed by 5 ml water. […] The radioactivity in each fraction and that remaining on the cartridge was measured with a Wallac γ-counter. Data were expressed as the percentage of unmetabolised parent compound (^18F]-PBR111) in the plasma sample. […]

[2] = biological target: T1, Translocator protein (TSPO) (Rattus norvegicus, UniProt P16257); assay: In vivo [^18F]-PBR111 PET imaging, Vt by two-compartment model with metabolite-corrected plasma input; parameters: Tissue distribution volume (Vt): unit not given here
T1 construct: from tissue; host or cells: brain of living male Wistar rats (control and kainic acid-induced status epilepticus)
Description: Seven days post-SE, rats were anaesthetised for PET imaging using isoflurane (induction 5%, maintenance 1% to 3%, in medical oxygen), and body temperature was maintained using a feedback-regulated heating pad. A catheter was implanted in the femoral artery as described above. The animal was then placed into the field-of-view of the INVEON PET/CT scanner (Siemens Medical Solutions, Knoxville, TN, USA), and physiological parameters (heart rate, respiration and body temperature) were monitored (BioVet, m2m Imaging Corp., Cleveland, OH, USA) for the entire scanning period. To avoid movement and fix tubing, the animal was restrained in the supine position using a webbed sock and adhesive tape.
The PET scan was started 20 to 30 s before the 1-min infusion of radiotracer (ID = 12.5 to 29.0 MBq, 0.05 to 0.29 nmol, max 0.4 ml in volume, as described above) for the duration of 60 min. Femoral arterial blood samples (approximately 50 μl/sample) were taken at 15-s intervals for 4 min after the commencement of the PET scan, and then at 10-, 20-, 30- and 50-min post-injections. In the last sample (100 μl), metabolites were analysed to confirm the standard metabolite correction and to calculate the partition coefficient at 50 min. Heparinised saline (20 IU) was administered after blood sampling to maintain the blood volume and to prevent hypotension. Plasma samples were collected after 10-min centrifugation of whole blood at 3,000 rpm. Whole blood and plasma samples were counted in a Wallac γ-counter, decay-corrected and weight-normalised. At the end of the PET scanning, a 10-min 70 kV/500 μA computed tomography (CT) scan was performed on each animal (for co-registration with PET data and magnetic resonance imaging (MRI) atlas).
Coincidence events were acquired into list mode files and then histogrammed into […] consecutive frames of variable duration (8 × 15 s, 6 × 20 s, 6 × 60 s, 3 × 180 s, and 5 × 500 s). The volumes were then reconstructed with an iterative algorithm 3D-OSEM/FastMap. PET images (128 × 128 × 159) were co-registered with CT scans and mapped to a MRI-based rat brain atlas. Left and right time activity curves (TACs) were derived from eight VOIs such as the frontal cortex, striatum, parietal cortex, hippocampus, thalamus, amygdala, occipital cortex and colliculi using the Anatomist package ( http://brainvisa.info). Also, the hypothalamus, brainstem, pons and cerebellum were extracted from the reconstructed images. Data were then converted into activity concentration (kBq/ml) using cross calibration factors.
Firstly, a two-compartment model was used to assess the ‘apparent’ volume of distribution (Vt), or the ‘volume’ of the tracer would occupy if the tracers were to adopt the same concentration in the tissue as in the blood. For each VOI, Vt was calculated using their TACs, the metabolite-corrected plasma curve as input function and the whole blood curve to model the kinetics of the vascular fraction (5%) in the cerebral tissue.

[3] = Stability of [^18F]-PBR111 in whole rat blood (1 h on the bench); type: in vitro ADME; settings: samples from 2- and 5-min post-injection left on the bench for 1 h vs processed immediately
Procedure: Animals were injected intravenously with [^18F]-PBR111 (injected dose (ID) = 14.1 to 38.7 MBq). The tracer was infused via the dorsal penile vein (maximum volume of 0.3 ml) using a Harvard Apparatus Pump 11 plus syringe pump (Holliston, MA, USA) over a constant time interval of 1 min. The line was flushed with saline, and the remaining radioactivity was measured in the line and syringe. Different ranges of tracer mass (0.07 to 4.00 nmol) were injected to evaluate whether this would affect the tracer metabolism. Arterial blood samples (0.2 ml) were withdrawn via a cannula implanted in the femoral artery from 2 to 60 min after the start of injection. The whole blood was then centrifuged at 3,000 rpm for 10 min, and the plasma was collected. Plasma samples (0.1 ml) were weighed and the radioactivity was measured in a Wallac γ-counter. At 2- and 5-min post-injections, the samples were taken in duplicate. One sample was left on the bench for 1 h, and the other was processed immediately to evaluate the stability in whole rat blood.

TSPO = biological target: T2, TSPO (Rattus norvegicus, UniProt P16257); assay: In vitro [^125I]-CLINDE autoradiography on coronal brain sections (post-mortem); type: binding
T2 construct: from tissue; host or cells: coronal cryostat sections (20 μm) of frozen rat brain, control and KASE animals
Procedure: TSPO binding density was assessed using the selective TSPO ligands, ^125I]-CLINDE and ^18 F]-PBR111 as described previously. Briefly, adjacent sets of unfixed […] sections were incubated in triplicate with 3 nM ^125I]-CLINDE or 4 nM ^18F]-PBR111 in 50 mM Tris buffer (pH 7.4 at 4°C) for 1 h. Non-specific binding was assessed with co-incubation with 10 μM PK11195 (Sigma-Aldrich). Sections were washed in ice cold Tris buffer (2 × 2 min), then distilled water (1 min), before being air dried on a slide warmer at 37°C. They were exposed to film, with ^14C] polymer standards (ARC, USA) for calibration of optical density to becquerel per milligram activity. Films were scanned using a BioRad GS-800 calibrated densitometer (Bio-Rad Laboratories, Hercules, CA, USA), and exposure times were chosen such that the optical density range of the sections was within the pseudolinear response range of the film.
Autoradiographic images were calibrated (cubic fit between optical density and [^14C]-standard values) and quantified using ImageJ ( http://rsbweb.nih.gov/ij/). […] Regions of interest were drawn blinded for control and KASE groups, converted to kilobecquerel per milligram and specific binding calculated.
Coronal brain sections (20 μm, −3.24 mm from bregma according to [21]) were cut using a cryostat, thaw-mounted onto Polysine® microscope slides (LabServ, Australia), and stored at −80°C. During cutting, pictures were taken in EB-injected animals to evaluate extravasation macroscopically. Adjacent sets of unfixed rat brain sections were analysed in triplicate for quantitative autoradiography for TSPO with ^125I]-CLINDE, OX-42 (microglial activation) immunohistochemistry and cresyl violet (cell loss).
Methodology regarding immunohistochemistry was performed as above. Semi-quantitative analysis included visual scoring of OX-42 signal as follows: mild (+), moderate (++) and intense (+++) OX-42 signals. For autoradiography, a preincubation step of 15 min in Tris buffer (50 mM, pH 7.4) was added to remove exogenous TSPO ligand. TSPO binding was assessed as described above in the cortex, corpus callosum, hippocampus and hippocampal subregions (CA1, CA2 and CA3/hilus), thalamus, hypothalamus, amygdala and piriform cortex. Histological verification of cell loss in hippocampal pyramidal cell layers (CA1, CA2, CA3 and hilus) was performed on Nissl-stained sections (using Cresyl Echt Violet) blinded for the treatment group.

T1 sequence (P16257 whole entry): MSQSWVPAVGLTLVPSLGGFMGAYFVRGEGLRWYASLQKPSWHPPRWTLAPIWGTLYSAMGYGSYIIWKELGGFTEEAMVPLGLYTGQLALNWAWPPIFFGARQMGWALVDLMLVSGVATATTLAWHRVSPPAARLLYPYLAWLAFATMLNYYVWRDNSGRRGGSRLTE
T2 sequence (P16257 whole entry): as above

CCN(CC)C(=O)Cc1c(-c2ccc(OCCC[18F])cc2)nc2ccc(Cl)cn12 [[^18F]-PBR111]
Percentage of parent compound in plasma ([1]; control animals): 20.8 ± 1.3% | Percentage of parent compound in plasma ([1]; severe SE animals): 20.1 ± 1.3% | Increase (%) of Vt, KASE vs control ([2]; Amygdala, Left): 288% | Tissue distribution volume (Vt) ([2]; Amygdala, Left, Control (N = 4)): 5.3 ± 0.8 | Tissue distribution volume (Vt) ([2]; Amygdala, Left, KASE (N = 4), 7 days post-SE): 20.6 ± 2.8 | Increase (%) of Vt, KASE vs control ([2]; Amygdala, Right): 284% | Tissue distribution volume (Vt) ([2]; Amygdala, Right, Control (N = 4)): 6.1 ± 0.7 | Tissue distribution volume (Vt) ([2]; Amygdala, Right, KASE (N = 4), 7 days post-SE): 23.4 ± 4.8 | Increase (%) of Vt, KASE vs control ([2]; Brainstem): 41% | Tissue distribution volume (Vt) ([2]; Brainstem, Control (N = 4)): 4.7 ± 0.8 | Tissue distribution volume (Vt) ([2]; Brainstem, KASE (N = 4), 7 days post-SE): 6.7 ± 1.0 | Increase (%) of Vt, KASE vs control ([2]; Cerebellum): 43% | Tissue distribution volume (Vt) ([2]; Cerebellum, Control (N = 4)): 7.5 ± 0.8 | Tissue distribution volume (Vt) ([2]; Cerebellum, KASE (N = 4), 7 days post-SE): 10.6 ± 1.3 | Increase (%) of Vt, KASE vs control ([2]; Colliculi, Left): 44% | Tissue distribution volume (Vt) ([2]; Colliculi, Left, Control (N = 4)): 4.0 ± 1.0 | Tissue distribution volume (Vt) ([2]; Colliculi, Left, KASE (N = 4), 7 days post-SE): 5.8 ± 1.1 | Increase (%) of Vt, KASE vs control ([2]; Colliculi, Right): 70% | Tissue distribution volume (Vt) ([2]; Colliculi, Right, Control (N = 4)): 4.1 ± 1.1 | Tissue distribution volume (Vt) ([2]; Colliculi, Right, KASE (N = 4), 7 days post-SE): 6.9 ± 1.8 | Increase (%) of Vt, KASE vs control ([2]; Frontal cortex, Left): 108% | Tissue distribution volume (Vt) ([2]; Frontal cortex, Left, Control (N = 4)): 5.4 ± 1.0 | Tissue distribution volume (Vt) ([2]; Frontal cortex, Left, KASE (N = 4), 7 days post-SE): 11.3 ± 2.4 | Increase (%) of Vt, KASE vs control ([2]; Frontal cortex, Right): 98% | Tissue distribution volume (Vt) ([2]; Frontal cortex, Right, Control (N = 4)): 5.7 ± 1.2 | Tissue distribution volume (Vt) ([2]; Frontal cortex, Right, KASE (N = 4), 7 days post-SE): 11.2 ± 2.4 | Increase (%) of Vt, KASE vs control ([2]; Hippocampus, Left): 154% | Tissue distribution volume (Vt) ([2]; Hippocampus, Left, Control (N = 4)): 3.6 ± 0.5 | Tissue distribution volume (Vt) ([2]; Hippocampus, Left, KASE (N = 4), 7 days post-SE): 9.1 ± 1.1 | Increase (%) of Vt, KASE vs control ([2]; Hippocampus, Right): 159% | Tissue distribution volume (Vt) ([2]; Hippocampus, Right, Control (N = 4)): 3.6 ± 0.4 | Tissue distribution volume (Vt) ([2]; Hippocampus, Right, KASE (N = 4), 7 days post-SE): 9.4 ± 1.6 | Increase (%) of Vt, KASE vs control ([2]; Hypothalamus): 104% | Tissue distribution volume (Vt) ([2]; Hypothalamus, Control (N = 4)): 4.0 ± 0.7 | Tissue distribution volume (Vt) ([2]; Hypothalamus, KASE (N = 4), 7 days post-SE): 8.2 ± 1.4 | Increase (%) of Vt, KASE vs control ([2]; Occipital cortex, Left): 53% | Tissue distribution volume (Vt) ([2]; Occipital cortex, Left, Control (N = 4)): 9.8 ± 3.4 | Tissue distribution volume (Vt) ([2]; Occipital cortex, Left, KASE (N = 4), 7 days post-SE): 15.1 ± 3.5 | Increase (%) of Vt, KASE vs control ([2]; Occipital cortex, Right): 62% | Tissue distribution volume (Vt) ([2]; Occipital cortex, Right, Control (N = 4)): 9.3 ± 1.4 | Tissue distribution volume (Vt) ([2]; Occipital cortex, Right, KASE (N = 4), 7 days post-SE): 15.0 ± 1.4 | Increase (%) of Vt, KASE vs control ([2]; Parietal cortex, Left): 110% | Tissue distribution volume (Vt) ([2]; Parietal cortex, Left, Control (N = 4)): 4.5 ± 0.6 | Tissue distribution volume (Vt) ([2]; Parietal cortex, Left, KASE (N = 4), 7 days post-SE): 9.5 ± 1.1 | Increase (%) of Vt, KASE vs control ([2]; Parietal cortex, Right): 136% | Tissue distribution volume (Vt) ([2]; Parietal cortex, Right, Control (N = 4)): 4.9 ± 0.8 | Tissue distribution volume (Vt) ([2]; Parietal cortex, Right, KASE (N = 4), 7 days post-SE): 11.6 ± 2.0 | Increase (%) of Vt, KASE vs control ([2]; Pons): 78% | Tissue distribution volume (Vt) ([2]; Pons, Control (N = 4)): 4.2 ± 0.9 | Tissue distribution volume (Vt) ([2]; Pons, KASE (N = 4), 7 days post-SE): 7.5 ± 1.8 | Increase (%) of Vt, KASE vs control ([2]; Striatum, Left): 180% | Tissue distribution volume (Vt) ([2]; Striatum, Left, Control (N = 4)): 2.8 ± 0.6 | Tissue distribution volume (Vt) ([2]; Striatum, Left, KASE (N = 4), 7 days post-SE): 8.0 ± 1.2 | Increase (%) of Vt, KASE vs control ([2]; Striatum, Right): 156% | Tissue distribution volume (Vt) ([2]; Striatum, Right, Control (N = 4)): 3.0 ± 0.5 | Tissue distribution volume (Vt) ([2]; Striatum, Right, KASE (N = 4), 7 days post-SE): 7.8 ± 1.1 | Increase (%) of Vt, KASE vs control ([2]; Thalamus, Left): 173% | Tissue distribution volume (Vt) ([2]; Thalamus, Left, Control (N = 4)): 2.6 ± 0.5 | Tissue distribution volume (Vt) ([2]; Thalamus, Left, KASE (N = 4), 7 days post-SE): 7.0 ± 1.8 | Increase (%) of Vt, KASE vs control ([2]; Thalamus, Right): 155% | Tissue distribution volume (Vt) ([2]; Thalamus, Right, Control (N = 4)): 2.8 ± 0.5 | Tissue distribution volume (Vt) ([2]; Thalamus, Right, KASE (N = 4), 7 days post-SE): 7.1 ± 1.4 | Stability in whole rat blood [3]: not further metabolised in vitro in whole rat blood

CCN(CC)C(=O)Cc1c(-c2ccc(I)cc2)nc2ccc(Cl)cn12 [[^125I]-CLINDE]
% increase of specific binding, KASE vs control (TSPO; Hippocampus (CA1)): 613% | % increase of specific binding, KASE vs control (TSPO; Hippocampus (CA2)): 491% | % increase of specific binding, KASE vs control (TSPO; Hippocampus (CA3)/hilus): 860% | % increase of specific binding, KASE vs control (TSPO; Hippocampus (whole, dorsal)): 226%
